row,melting point,SMILES
1,259 to 260 °C,"CN(CC(=O)O)S(=O)(=O)c1ccc(N/C(=C2\C(=O)Nc3ccc([N+](=O)[O-])cc32)c2ccccc2)cc1 [Example 414, (Z)-3-{1-[4-(N-carboxymethyl-N-methyl-aminosulphonyl)-phenylamino]-1-phenyl-methylidene}-5-nitro-2-indolinone]"
2,228 °C,"CCC(=O)N(CCN1CCOCC1)c1ccc(N/C(=C2\C(=O)Nc3ccccc32)c2ccccc2)cc1 [Example 349, (Z)-3-{1-[4-(N-(2-morpholinoethyl)-N-propionyl-amino)-phenylamino]-1-phenyl-methylidene}-2-indolinone]"
3,227 to 230 °C,"CS(=O)(=O)N(CC(N)=O)c1cccc(N/C(=C2\C(=O)Nc3ccccc32)c2ccccc2)c1 [Example 319, (Z)-3-{1-[3-(N-aminocarbonylmethyl-N-methylsulphonyl-amino)-phenylamino]-1-phenyl-methylidene}-2-indolinone]"
4,277 to 279 °C,"COCCNC(=O)c1ccc(N/C(=C2\C(=O)Nc3ccccc32)c2ccccc2)cc1 [Example 388, (Z)-3-{1-[4-(2-methoxyethylaminocarbonyl)-phenylamino]-1-phenyl-methylidene}-2-indolinone]"
5,188 to 190 °C,"CN(C)CC(=O)N(C)c1ccc(N/C(=C2\C(=O)Nc3ccccc32)c2ccc(CN)cc2)cc1 [Example 430, (Z)-3-{1-[4-(N-dimethylaminomethylcarbonyl-N-methyl-amino)-phenylamino]-1-(4-aminomethyl-phenyl)-methylidene}-2-indolinone]"
6,274 to 277 °C,"CCC(=O)N(CC(=O)N(C)C)c1ccc(N/C(=C2\C(=O)Nc3ccccc32)c2ccccc2)cc1 [Example 359, (Z)-3-{1-[4-(N-dimethylaminocarbonylmethyl-N-propionyl-amino)-phenylamino]-1-phenyl-methylidene}-2-indolinone]"
7,195 to 197 °C,"CN(CC(=O)N(C)c1ccc(N/C(=C2\C(=O)Nc3ccccc32)c2ccccc2)cc1)Cc1ccccc1 [Example 370, (Z)-3-{1-[4-(N—(N-benzyl-N-methyl-aminomethylcarbonyl)-N-methyl-amino)-phenylamino]-1-phenyl-methylidene}-2-indolinone]"
8,188 to 190 °C,"CCOC(=O)CN(c1cccc(N/C(=C2\C(=O)Nc3ccccc32)c2ccccc2)c1)S(C)(=O)=O [Example 317, (Z)-3-{1-[3-(N-ethoxycarbonylmethyl-N-methylsulphonyl-amino)-phenylamino]-1-phenyl-methylidene}-2-indolinone]"
9,178 to 183 °C,"COC(=O)c1ccc(/C(Nc2ccc(CN3CCCCC3)cc2)=C2/C(=O)Nc3ccc([N+](=O)[O-])cc32)cc1 [Example 444, (Z)-3-[1-(4-piperidinomethyl-phenylamino)-1-(4-methoxycarbonyl-phenyl)-methylidene]-5-nitro-2-indolinone]"
10,170 °C,"O=C1Nc2ccc(Br)cc2/C1=C(/Nc1ccc(CN2CCCCC2)cc1)c1ccccc1 [Example 450, (Z)-3-[1-(4-piperidinomethyl-phenylamino)-1-phenyl-methylidene]-5-bromo-2-indolinone]"
11,239 °C,"CC(C)C(=O)N(CCN1CCOCC1)c1ccc(N/C(=C2\C(=O)Nc3ccccc32)c2ccccc2)cc1 [Example 350, (Z)-3-{1-[4-(N-(2-morpholinoethyl)-N-isopropylcarbonyl-amino)-phenylamino]-1-phenyl-methylidene}-2-indolinone]"
12,130 °C,"COC(=O)CCNC(=O)c1ccc(/C(Nc2ccc(CN3CCCCC3)cc2)=C2/C(=O)Nc3ccc([N+](=O)[O-])cc32)cc1 [Example 447, (Z)-3-[1-(4-piperidinomethyl-phenylamino)-1-(4-(2-methoxycarbonyl-ethylaminocarbonyl)-phenyl)-methylidene]-5-nitro-2-indolinone]"
13,95 to 98 °C,"CCOC(=O)CN(C)C(=O)c1ccc(N/C(=C2\C(=O)Nc3ccccc32)c2ccccc2)cc1 [Example 394, (Z)-3-{1-[4-(N-ethoxycarbonylmethyl-N-methyl-aminocarbonyl)-phenylamino]-1-phenyl-methylidene}-2-indolinone]"

# The remaining lines, values behind:
row,SMILES,melting point
1,"CN(C)C(=O)C1CCN(Cc2ccc(N/C(=C3\C(=O)Nc4ccc([N+](=O)[O-])cc43)c3ccccc3)cc2)CC1 [Example 249, (Z)-3-{1-[4-(4-dimethylaminocarbonyl-piperidinomethyl)-phenylamino]-1-phenyl-methylidene}-5-nitro-2-indolinone]",272 to 273 °C
2,"CCCCN(CCCC)Cc1ccc(N/C(=C2\C(=O)Nc3ccc([N+](=O)[O-])cc32)c2ccccc2)cc1 [Example 165, (Z)-3-[1-(4-Dibutylaminomethyl-phenylamino)-1-phenyl-methylidene]-5-nitro-2-indolinone]",175 °C
3,"O=C1Nc2ccc([N+](=O)[O-])cc2/C1=C(/Nc1ccc(CNc2ccccn2)cc1)c1ccccc1 [Example 279, (Z)-3-{1-[4-(pyridine-2-ylaminomethyl)-phenylamino]-1-phenyl-methylidene}-5-nitro-2-indolinone]",266 to 268 °C
4,"CC(=O)N(C)Cc1ccc(N/C(=C2\C(=O)Nc3ccc([N+](=O)[O-])cc32)c2ccccc2)cc1 [Example 122, (Z)-3-{1-[4-(N-acetyl-N-methyl-aminomethyl)-phenylamino]-1-phenyl-methylidene}-5-nitro-2-indolinone]",307 °C
5,"CCS(=O)(=O)N(CC(=O)N(C)CCN(C)C)c1ccc(N/C(=C2\C(=O)Nc3ccc([N+](=O)[O-])cc32)c2ccccc2)cc1 [Example 296, (Z)-3-{1-[4-(N—((N-(2-dimethylaminoethyl)-N-methyl-amino)-carbonylmethyl)-N-ethylsulphonyl-amino)-phenylamino]-1-phenyl-methylidene}-5-nitro-2-indolinone]",117 °C
6,"CN(C)CC(=O)NCc1ccc(N/C(=C2\C(=O)Nc3ccc([N+](=O)[O-])cc32)c2ccccc2)cc1 [Example 142, (Z)-3-[1-(4-dimethylaminomethylcarbonylaminomethyl-phenylamino)-1-phenyl-methylidene]-5-nitro-2-indolinone]",272 to 273 °C
7,"CN(C)CCN(c1ccc(N/C(=C2\C(=O)Nc3ccc([N+](=O)[O-])cc32)c2ccccc2)cc1)S(C)(=O)=O [Example 202, (Z)-3-{1-[4-(N-(2-dimethylamino-ethyl)-N-methylsulphonyl-amino)-phenylamino]-1-phenyl-methylidene}-5-nitro-2-indolinone]",276 to 277 °C
8,"CCCNCc1ccc(N/C(=C2\C(=O)Nc3ccc([N+](=O)[O-])cc32)c2ccccc2)cc1 [Example 162, (Z)-3-[1-(4-propylaminomethyl-phenylamino)-1-phenyl-methylidene]-5-nitro-2-indolinone]",201 to 202 °C
9,Cl.NCC(=O)NCc1ccc(N/C(=C2\C(=O)Nc3ccccc32)c2ccccc2)cc1,190 to 195 °C
10,"CN(C)C(=O)CN(c1ccc(N/C(=C2\C(=O)Nc3ccccc32)c2ccccc2)cc1)S(C)(=O)=O [Example 193, (Z)-3-{1-[4-(N-dimethylaminocarbonylmethyl-N-methylsulphonylamino)-phenylamino]-1-phenyl-methylidene}-2-indolinone]",260 to 262 °C
11,Cl.NCC(=O)Nc1ccc(N/C(=C2\C(=O)Nc3ccccc32)c2ccccc2)cc1,289 to 290 °C
12,"CN(C(=O)CCNC(=O)OC(C)(C)C)c1ccc(N/C(=C2\C(=O)Nc3ccccc32)c2ccccc2)cc1 [Example 376, (Z)-3-{1-[4-(N-(2-tert.butoxycarbonylamino-ethylcarbonyl)-N-methyl-amino)-phenylamino]-1-phenyl-methylidene}-2-indolinone]",246 to 248 °C
13,"O=C(O)Cc1ccc(N/C(=C2\C(=O)Nc3ccccc32)c2ccccc2)cc1 [Example 16, (Z)-3-[1-(4-carboxymethyl-phenylamino)-1-phenyl-methylidene]-2-indolinone]",214 to 216 °C
14,"CC(C)CNCc1ccc(N/C(=C2\C(=O)Nc3ccc([N+](=O)[O-])cc32)c2ccccc2)cc1 [Example 164, (Z)-3-[1-(4-isobutylaminomethyl-phenylamino)-1-phenyl-methylidene]-5-nitro-2-indolinone]",208 °C
15,"CC(C)S(=O)(=O)N(CC(=O)N(C)C)c1ccc(N/C(=C2\C(=O)Nc3ccccc32)c2ccccc2)cc1 [Example 304, (Z)-3-{1-[4-(N-(dimethylaminocarbonylmethyl)-N-isopropylsulphonyl-amino)-phenylamino]-1-phenyl-methylidene}-2-indolinone]",146 to 148 °C
16,"CC(=O)N1C(=O)/C(=C(\Nc2ccc(CNC(=O)OC(C)(C)C)cc2)c2ccc(CN3C(=O)c4ccccc4C3=O)cc2)c2cc([N+](=O)[O-])ccc21 [Example 146, (Z)-3-[1-(4-tert.butoxycarbonylaminomethyl-phenylamino)-1-(4-phthalimidomethyl-phenyl)-methylidene]-1-acetyl-5-nitro-2-indolinone]",125 °C (dec.)
17,"CS(=O)(=O)Nc1ccc(N/C(=C2\C(=O)Nc3ccc([N+](=O)[O-])cc32)c2ccccc2)cc1 [Example 196, (Z)-3-[(4-methylsulphonylamino-phenylamino)-1-phenyl-methylidene]-5-nitro-2-indolinone]",344 to 346 °C
18,"CS(=O)(=O)N(CCN1CCOCC1)c1ccc(N/C(=C2\C(=O)Nc3ccc([N+](=O)[O-])cc32)c2ccccc2)cc1 [Example 203, (Z)-3-{1-[4-(N-(2-morpholinoethyl)-N-methylsulphonyl-amino)-phenylamino]-1-phenyl-methylidene}-5-nitro-2-indolinone]",255 to 257 °C
19,CCN(CC)CC(=O)Nc1ccc(N/C(=C2\C(=O)Nc3ccccc32)c2ccccc2)cc1.Cl,267 to 269 °C
20,"NC(CCO)(CCO)c1ccc(N/C(=C2\C(=O)Nc3ccc([N+](=O)[O-])cc32)c2ccccc2)cc1 [Example 240, (Z)-3-{1-[4-(Bis-(2-hydroxyethyl)-aminomethyl)-phenylamino]-1-phenyl-methylidene}-5-nitro-2-indolinone]",196 to 198 °C
